ChEMBL document CHEMBL1201862, “PubChem BioAssay data set” (2004)
Calls of active or inactive are those of the source.

Tests used:
INS1 = test: beta cell apoptosis inhibitors, cytokine rescue, dose response, luminescence, retest (AID 449756); assay type: functional, cell-based; conditions: Rattus norvegicus;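 also: cell death triggered by IL-1 beta plus TNF-alpha plus IFN-gamma mixture; protective hits raise ATP signal compared with cytokine alone wells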
[1] = target: T1, Rac GTPase-activating protein 1 (Homo sapiens, UniProt Q9H0H5); test: MgcRacGAP GTPase-activating activity inhibitors, confirmation, biochemical, ADP Hunter fluorescence, primary and confirmatory (AID 624330); assay type: functional
T1 sequence (Q9H0H5 whole entry): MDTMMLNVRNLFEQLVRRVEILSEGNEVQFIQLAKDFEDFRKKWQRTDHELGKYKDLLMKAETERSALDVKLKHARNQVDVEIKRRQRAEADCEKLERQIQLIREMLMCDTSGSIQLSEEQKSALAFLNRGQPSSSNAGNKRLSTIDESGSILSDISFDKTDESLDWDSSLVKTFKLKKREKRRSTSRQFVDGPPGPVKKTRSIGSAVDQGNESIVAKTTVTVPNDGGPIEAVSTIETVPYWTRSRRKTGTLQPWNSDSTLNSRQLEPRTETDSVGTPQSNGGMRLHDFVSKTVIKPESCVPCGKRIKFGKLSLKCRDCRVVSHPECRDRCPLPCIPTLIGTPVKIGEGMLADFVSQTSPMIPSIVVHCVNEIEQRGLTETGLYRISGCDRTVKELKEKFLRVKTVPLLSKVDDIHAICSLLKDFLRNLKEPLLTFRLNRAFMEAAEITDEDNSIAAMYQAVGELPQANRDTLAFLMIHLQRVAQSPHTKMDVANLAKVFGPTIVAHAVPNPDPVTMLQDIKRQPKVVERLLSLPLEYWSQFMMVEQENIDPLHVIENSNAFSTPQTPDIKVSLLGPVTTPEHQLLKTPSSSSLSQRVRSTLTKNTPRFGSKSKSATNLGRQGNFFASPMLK

[2] = target: T2, Ubiquitin-conjugating enzyme E2 N (Homo sapiens, UniProt P61088); assay type: functional
T2 sequence (P61088 whole entry): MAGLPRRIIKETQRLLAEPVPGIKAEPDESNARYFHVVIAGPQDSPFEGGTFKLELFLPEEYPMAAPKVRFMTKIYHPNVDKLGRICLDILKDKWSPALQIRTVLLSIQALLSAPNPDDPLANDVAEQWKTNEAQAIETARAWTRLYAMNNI

[3] = target: T3, Apoptotic protease-activating factor 1 (Homo sapiens, UniProt O14727); assay type: functional
T3 sequence (O14727 whole entry): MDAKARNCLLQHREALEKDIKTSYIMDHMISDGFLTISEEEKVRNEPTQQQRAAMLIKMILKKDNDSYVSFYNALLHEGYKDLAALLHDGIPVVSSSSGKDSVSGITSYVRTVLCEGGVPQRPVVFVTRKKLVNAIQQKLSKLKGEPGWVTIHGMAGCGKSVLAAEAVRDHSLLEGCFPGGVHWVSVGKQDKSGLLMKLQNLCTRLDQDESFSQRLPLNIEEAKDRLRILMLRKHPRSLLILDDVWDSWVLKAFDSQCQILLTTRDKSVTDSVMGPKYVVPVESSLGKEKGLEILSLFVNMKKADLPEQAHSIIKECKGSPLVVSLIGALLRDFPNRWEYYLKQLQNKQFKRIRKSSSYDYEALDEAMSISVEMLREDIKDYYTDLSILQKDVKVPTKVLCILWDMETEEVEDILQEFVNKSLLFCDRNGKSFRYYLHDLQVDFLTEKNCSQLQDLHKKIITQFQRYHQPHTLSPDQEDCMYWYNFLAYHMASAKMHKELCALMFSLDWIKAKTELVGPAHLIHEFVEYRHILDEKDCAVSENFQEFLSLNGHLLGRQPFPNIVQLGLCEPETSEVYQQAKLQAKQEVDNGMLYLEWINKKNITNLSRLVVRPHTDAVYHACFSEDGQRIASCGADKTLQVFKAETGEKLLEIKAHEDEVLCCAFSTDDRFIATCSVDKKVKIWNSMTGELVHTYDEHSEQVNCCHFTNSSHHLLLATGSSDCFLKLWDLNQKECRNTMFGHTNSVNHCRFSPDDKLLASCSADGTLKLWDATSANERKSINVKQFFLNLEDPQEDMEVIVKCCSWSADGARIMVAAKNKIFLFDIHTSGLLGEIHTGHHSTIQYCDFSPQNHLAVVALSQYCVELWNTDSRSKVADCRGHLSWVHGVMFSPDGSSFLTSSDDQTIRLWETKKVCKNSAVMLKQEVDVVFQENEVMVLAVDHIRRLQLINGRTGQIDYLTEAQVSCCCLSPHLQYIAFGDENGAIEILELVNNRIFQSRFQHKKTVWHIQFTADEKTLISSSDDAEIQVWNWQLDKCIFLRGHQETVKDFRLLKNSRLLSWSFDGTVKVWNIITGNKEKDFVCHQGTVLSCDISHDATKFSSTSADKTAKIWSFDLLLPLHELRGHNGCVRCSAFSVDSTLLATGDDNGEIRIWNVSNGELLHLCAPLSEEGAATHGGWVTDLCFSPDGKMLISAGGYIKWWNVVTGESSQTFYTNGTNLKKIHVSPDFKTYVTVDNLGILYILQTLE

Bcl-2-related protein A1 = target: T4, Bcl-2-related protein A1 (Mus musculus, UniProt Q07440); assay type: functional;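 also: confirmatory dose–response counterscreen on Bfl-1, used to check hits from a UBC13 polyubiquitin inhibitor campaign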
T4 sequence (Q07440 whole entry): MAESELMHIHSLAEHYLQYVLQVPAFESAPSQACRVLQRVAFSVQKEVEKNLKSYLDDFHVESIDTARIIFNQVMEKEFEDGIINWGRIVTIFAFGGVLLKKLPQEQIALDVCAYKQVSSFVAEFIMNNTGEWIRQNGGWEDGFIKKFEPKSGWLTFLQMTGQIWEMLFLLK

[4] = target: 72 kDa type IV collagenase (Homo sapiens, UniProt P08253); test: Dose Response validation of uHTS RPN11 inhibitor hits using a MMP-2 Fluorescence assay.; assay type: functional
[5] = target: T5, Small ubiquitin-related modifier 1 (Homo sapiens, UniProt P63165); test: inhibitors of SUMO1 partner interactions, dose response, biochemical, FRET (AID 624383); assay type: functional; conditions: read-out: IC50_Mean
[6] = microbe, parasite or virus in culture; assay type: functional; conditions: Mycobacterium tuberculosis
[7] = target: T3, Apoptotic protease-activating factor 1; test: SAR analysis of small molecule inhibitors of Apaf-1 in a Fluorescent assay.; assay type: functional; conditions: read-out: IC50_Mean
Prothrombin = Prothrombin (Bos taurus, UniProt P00735); test: thrombin inhibition, dose response, biochemical, fluorescence polarization, uHTS hits (AID 602369); assay type: functional
[8] = target: 26S proteasome non-ATPase regulatory subunit 14 (Homo sapiens, UniProt O00487); test: inhibition of proteasome subunit RPN11 – biochemical, fluorescence polarization, uHTS hits, confirmation (AID 602368); assay type: functional
[9] = target: T2, Ubiquitin-conjugating enzyme E2 N; assay type: functional; remark: listed apart in the source
[10] = target: T5, Small ubiquitin-related modifier 1; test: inhibitors of SUMO1 peptide binding, dose response, biochemical, fluorescence polarization, uHTS hits (AID 624382); assay type: functional; conditions: read-out: IC50_Mean
Lethal factor = Lethal factor (Bacillus anthracis, UniProt P15917); test: High-throughput multiplex microsphere dose response for inhibitors of toxin protease, specifically Lethal Factor protease, compounds from Cherry Pick 02.; assay type: functional; conditions: read-out: EC50_MICROM
[11] = target: T6, Botulinum neurotoxin type A (Clostridium botulinum (strain Hall / ATCC 3502 / NCTC 13319 / Type A), UniProt P0DPI1); test: High-throughput multiplex microsphere dose response for inhibitors of toxin protease, specifically Botulinum neurotoxin light chain A protease, compounds from Cherry Pick 02.; assay type: functional; conditions: read-out: EC50_MICROM
[12] = target: Botulinum neurotoxin type F (Clostridium botulinum, UniProt P30996); test: High-throughput multiplex microsphere dose response for inhibitors of toxin protease, specifically Botulinum neurotoxin light chain F protease, compounds from Cherry Pick 02.; assay type: functional; conditions: read-out: EC50_MICROM
[13] = target: T6, Botulinum neurotoxin type A; test: High-throughput multiplex microsphere dose response for inhibitors of toxin protease, specifically Botulinum neurotoxin light chain A protease, compounds from Cherry Pick 01.; assay type: functional; conditions: read-out: EC50_MICROM
LIM domain kinase 1 = LIM domain kinase 1 (Homo sapiens, UniProt P53667); test: Navigating the Kinome. Panel member name: LIMK1; assay type: functional
[14] = target: Death-associated protein kinase 3 (Homo sapiens, UniProt O43293); assay type: functional;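 also: measured as one member of a kinome-wide profiling panel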
[15] = target: Leukocyte tyrosine kinase receptor (Homo sapiens, UniProt P29376); test: Navigating the Kinome. Panel member name: LTK; assay type: functional
[16] = target: Mitogen-activated protein kinase kinase kinase kinase 2 (Homo sapiens, UniProt Q12851); assay type: functional;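 also: measured as one member of a kinome-wide kinase panel, with MAP4K2 as the panel entry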
[17] = target: Tyrosine-protein kinase ABL1 (Homo sapiens, UniProt P00519); assay type: functional
[18] = target: cAMP-dependent protein kinase catalytic subunit PRKX (Homo sapiens, UniProt P51817); assay type: functional
[19] = target: Dual specificity tyrosine-phosphorylation-regulated kinase 1A (Homo sapiens, UniProt Q13627); assay type: functional;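 also: measured against DYRK1A as one member of a broad kinome profiling panel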
[20] = target: Cyclin-dependent kinase 5 (Homo sapiens, UniProt Q00535); assay type: functional;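 also: CDK5 measured as one member of a kinase profiling panel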
[21] = target: Dual specificity tyrosine-phosphorylation-regulated kinase 1B (Homo sapiens, UniProt Q9Y463); test: Navigating the Kinome. Panel member name: DYRK1B; assay type: functional
[22] = target: Leucine-rich repeat serine/threonine-protein kinase 2 (Homo sapiens, UniProt Q5S007); assay type: functional;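 also: value from a broad kinome-wide panel profiling study in which LRRK2 was one of the kinases tested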
[23] = target: Tyrosine-protein kinase receptor TYRO3 (Homo sapiens, UniProt Q06418); assay type: functional;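 also: TYRO3 value obtained as one member of a kinome-wide profiling panel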
[24] = target: Vascular endothelial growth factor receptor 2 (Homo sapiens, UniProt P35968); assay type: functional
[25] = target: Cyclin-dependent kinase 7 (Homo sapiens, UniProt P50613); assay type: functional;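 also: value comes from a kinome-wide kinase profiling panel in which CDK7 is one member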
[26] = target: Cyclin-dependent kinase 8 (Homo sapiens, UniProt P49336); test: Navigating the Kinome. Panel member name: CDK8; assay type: functional
[27] = target: Casein kinase I isoform alpha (Homo sapiens, UniProt P48729); assay type: functional
[28] = target: Macrophage colony-stimulating factor 1 receptor (Homo sapiens, UniProt P07333); assay type: functional;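 also: value comes from the Navigating the Kinome screening panel, CSF1R member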
[29] = target: G protein-coupled receptor kinase 5 (Homo sapiens, UniProt P34947); test: Navigating the Kinome. Panel member name: GPRK5; assay type: functional
[30] = target: Dual specificity protein kinase CLK4 (Homo sapiens, UniProt Q9HAZ1); assay type: functional
[31] = target: Calcium/calmodulin-dependent protein kinase type II subunit alpha (Homo sapiens, UniProt Q9UQM7); test: Navigating the Kinome. Panel member name: CAMK2A; assay type: functional
[32] = target: cAMP-dependent protein kinase catalytic subunit alpha (Homo sapiens, UniProt P17612); assay type: functional
[33] = target: Protein kinase C theta type (Homo sapiens, UniProt Q04759); test: Navigating the Kinome. Panel member name: PRKCQ; assay type: functional
Aurora kinase B = Aurora kinase B (Homo sapiens, UniProt Q96GD4); assay type: functional
[34] = target: Serine/threonine-protein kinase Nek2 (Homo sapiens, UniProt P51955); assay type: functional
Focal adhesion kinase 1 = Focal adhesion kinase 1 (Homo sapiens, UniProt Q05397); assay type: functional;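 also: measured as one member of a kinome panel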
[35] = target: Serine/threonine-protein kinase Chk1 (Homo sapiens, UniProt O14757); assay type: functional;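 also: measured as one member of a kinome-wide kinase profiling panel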
[36] = target: Inhibitor of nuclear factor kappa-B kinase subunit epsilon (Homo sapiens, UniProt Q14164); test: Navigating the Kinome. Panel member name: IKBKE; assay type: functional
[37] = target: Proto-oncogene tyrosine-protein kinase receptor Ret (Homo sapiens, UniProt P07949); assay type: functional;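 also: measured within a kinome-wide profiling panel, RET as the panel member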
[38] = target: Serine/threonine-protein kinase D3 (Homo sapiens, UniProt O94806); assay type: functional;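 also: determined within a kinase panel screen, with PRKCN as the panel member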
Aurora kinase A = Aurora kinase A (Homo sapiens, UniProt O14965); assay type: functional;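 also: value from the Navigating the Kinome kinase panel profiling, panel entry STK6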
[39] = target: Hepatocyte growth factor receptor (Homo sapiens, UniProt P08581); assay type: functional;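 also: kinase panel profiling across the kinome, with MET as the panel member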
[40] = target: Platelet-derived growth factor receptor beta (Homo sapiens, UniProt P09619); assay type: functional;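 also: value comes from a kinome panel, with PDGFRB tested as one panel member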

T6 sequence (P0DPI1 2-448 limits assumed): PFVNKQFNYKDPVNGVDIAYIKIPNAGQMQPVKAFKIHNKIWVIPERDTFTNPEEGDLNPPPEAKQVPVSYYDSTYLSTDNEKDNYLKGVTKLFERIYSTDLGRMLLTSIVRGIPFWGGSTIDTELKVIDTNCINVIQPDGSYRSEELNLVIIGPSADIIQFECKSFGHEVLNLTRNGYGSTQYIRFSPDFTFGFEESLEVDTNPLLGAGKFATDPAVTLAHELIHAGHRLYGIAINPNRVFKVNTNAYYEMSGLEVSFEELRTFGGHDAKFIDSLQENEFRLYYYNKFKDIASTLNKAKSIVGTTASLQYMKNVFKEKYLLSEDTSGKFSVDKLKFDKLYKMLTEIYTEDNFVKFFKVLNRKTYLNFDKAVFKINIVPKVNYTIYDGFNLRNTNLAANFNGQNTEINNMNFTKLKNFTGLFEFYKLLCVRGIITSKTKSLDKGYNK
T5 sequence (P63165 whole entry): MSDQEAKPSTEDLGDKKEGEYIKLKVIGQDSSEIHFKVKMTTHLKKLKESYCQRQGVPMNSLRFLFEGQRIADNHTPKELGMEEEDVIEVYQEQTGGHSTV
Chain of LIM domain kinase 1 (P53667 whole entry, the tested form may be a part): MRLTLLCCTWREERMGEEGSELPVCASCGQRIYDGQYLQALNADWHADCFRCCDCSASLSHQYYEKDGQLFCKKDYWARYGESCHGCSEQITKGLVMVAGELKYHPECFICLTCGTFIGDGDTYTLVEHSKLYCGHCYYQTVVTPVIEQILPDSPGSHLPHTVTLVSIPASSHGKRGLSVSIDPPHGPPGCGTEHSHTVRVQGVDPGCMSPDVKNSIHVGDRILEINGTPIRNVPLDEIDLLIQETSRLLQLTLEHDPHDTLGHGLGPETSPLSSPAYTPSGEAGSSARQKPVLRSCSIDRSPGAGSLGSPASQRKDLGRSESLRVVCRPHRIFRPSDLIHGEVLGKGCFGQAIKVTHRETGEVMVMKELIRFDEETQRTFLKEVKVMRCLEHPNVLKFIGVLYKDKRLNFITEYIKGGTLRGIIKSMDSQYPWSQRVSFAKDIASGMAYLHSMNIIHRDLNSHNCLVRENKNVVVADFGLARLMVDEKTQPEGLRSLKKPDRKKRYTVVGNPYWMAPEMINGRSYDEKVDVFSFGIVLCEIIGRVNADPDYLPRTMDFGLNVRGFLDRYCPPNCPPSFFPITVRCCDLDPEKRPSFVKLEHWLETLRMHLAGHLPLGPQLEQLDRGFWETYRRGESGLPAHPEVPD
Chain of Macrophage colony-stimulating factor 1 receptor (P07333 whole entry): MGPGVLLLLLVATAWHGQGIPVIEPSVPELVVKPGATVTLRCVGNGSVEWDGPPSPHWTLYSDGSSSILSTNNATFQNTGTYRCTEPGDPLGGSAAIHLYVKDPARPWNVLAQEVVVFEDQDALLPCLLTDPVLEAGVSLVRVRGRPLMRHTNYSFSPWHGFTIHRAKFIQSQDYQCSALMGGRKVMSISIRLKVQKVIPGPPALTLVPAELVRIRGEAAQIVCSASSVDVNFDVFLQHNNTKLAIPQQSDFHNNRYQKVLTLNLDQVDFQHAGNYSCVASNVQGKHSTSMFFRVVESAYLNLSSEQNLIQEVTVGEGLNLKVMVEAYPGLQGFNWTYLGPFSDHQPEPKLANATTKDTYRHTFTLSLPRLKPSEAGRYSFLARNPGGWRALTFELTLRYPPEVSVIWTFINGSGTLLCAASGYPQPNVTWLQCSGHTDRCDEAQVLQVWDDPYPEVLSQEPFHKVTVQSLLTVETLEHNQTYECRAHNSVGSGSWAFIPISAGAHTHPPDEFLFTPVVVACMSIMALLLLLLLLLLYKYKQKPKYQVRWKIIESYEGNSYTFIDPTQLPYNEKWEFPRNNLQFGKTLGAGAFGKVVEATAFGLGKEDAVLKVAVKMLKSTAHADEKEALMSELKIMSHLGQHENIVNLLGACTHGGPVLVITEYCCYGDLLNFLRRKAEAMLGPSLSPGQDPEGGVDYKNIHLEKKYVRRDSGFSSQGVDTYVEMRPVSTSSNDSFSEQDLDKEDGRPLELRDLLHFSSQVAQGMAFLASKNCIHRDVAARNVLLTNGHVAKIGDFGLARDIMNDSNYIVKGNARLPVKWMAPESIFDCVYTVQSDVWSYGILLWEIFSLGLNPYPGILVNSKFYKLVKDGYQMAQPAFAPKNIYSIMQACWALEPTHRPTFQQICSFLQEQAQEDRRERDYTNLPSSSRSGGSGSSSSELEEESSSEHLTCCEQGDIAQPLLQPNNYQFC
Chain of 72 kDa type IV collagenase (P08253 whole entry): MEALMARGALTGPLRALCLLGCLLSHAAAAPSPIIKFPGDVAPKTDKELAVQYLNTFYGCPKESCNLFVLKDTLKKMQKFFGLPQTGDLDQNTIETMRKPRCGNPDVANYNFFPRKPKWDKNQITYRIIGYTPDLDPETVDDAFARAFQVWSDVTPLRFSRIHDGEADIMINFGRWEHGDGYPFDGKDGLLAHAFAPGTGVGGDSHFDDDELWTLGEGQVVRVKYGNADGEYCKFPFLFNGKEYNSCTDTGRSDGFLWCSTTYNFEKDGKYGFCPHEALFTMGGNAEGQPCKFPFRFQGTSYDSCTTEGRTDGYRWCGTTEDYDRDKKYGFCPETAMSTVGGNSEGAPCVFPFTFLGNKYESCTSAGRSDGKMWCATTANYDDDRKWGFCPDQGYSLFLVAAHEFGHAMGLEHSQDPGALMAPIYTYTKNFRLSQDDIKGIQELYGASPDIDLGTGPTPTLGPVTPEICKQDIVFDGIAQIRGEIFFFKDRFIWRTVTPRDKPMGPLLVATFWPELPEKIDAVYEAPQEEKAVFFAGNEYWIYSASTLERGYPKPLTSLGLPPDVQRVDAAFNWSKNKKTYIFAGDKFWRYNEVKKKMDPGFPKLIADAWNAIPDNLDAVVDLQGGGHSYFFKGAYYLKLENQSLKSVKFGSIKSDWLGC
Chain of Mitogen-activated protein kinase kinase kinase kinase 2 (Q12851 whole entry): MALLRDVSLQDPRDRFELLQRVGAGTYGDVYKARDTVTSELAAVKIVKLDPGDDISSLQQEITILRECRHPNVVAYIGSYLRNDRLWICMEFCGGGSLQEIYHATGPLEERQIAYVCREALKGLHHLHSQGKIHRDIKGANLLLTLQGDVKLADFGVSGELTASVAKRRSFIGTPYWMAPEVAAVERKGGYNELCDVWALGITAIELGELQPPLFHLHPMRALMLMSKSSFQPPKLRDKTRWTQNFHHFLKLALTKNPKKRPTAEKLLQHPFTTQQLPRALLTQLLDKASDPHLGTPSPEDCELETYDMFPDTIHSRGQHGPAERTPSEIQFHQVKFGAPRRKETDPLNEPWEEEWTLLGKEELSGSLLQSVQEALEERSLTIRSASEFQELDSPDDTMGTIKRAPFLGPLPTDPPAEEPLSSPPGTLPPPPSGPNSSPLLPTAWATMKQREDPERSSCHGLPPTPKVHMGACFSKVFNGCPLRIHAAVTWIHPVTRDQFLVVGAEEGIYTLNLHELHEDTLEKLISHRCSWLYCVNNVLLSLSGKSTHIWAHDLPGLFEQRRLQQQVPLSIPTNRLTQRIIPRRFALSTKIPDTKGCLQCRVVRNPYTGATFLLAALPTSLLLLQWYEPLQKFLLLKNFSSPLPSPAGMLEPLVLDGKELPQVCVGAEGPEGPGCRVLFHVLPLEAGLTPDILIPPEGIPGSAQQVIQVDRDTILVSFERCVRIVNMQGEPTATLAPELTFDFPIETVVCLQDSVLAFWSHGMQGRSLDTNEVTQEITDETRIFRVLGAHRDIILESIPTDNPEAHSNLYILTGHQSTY
Chain of Aurora kinase A (O14965 whole entry): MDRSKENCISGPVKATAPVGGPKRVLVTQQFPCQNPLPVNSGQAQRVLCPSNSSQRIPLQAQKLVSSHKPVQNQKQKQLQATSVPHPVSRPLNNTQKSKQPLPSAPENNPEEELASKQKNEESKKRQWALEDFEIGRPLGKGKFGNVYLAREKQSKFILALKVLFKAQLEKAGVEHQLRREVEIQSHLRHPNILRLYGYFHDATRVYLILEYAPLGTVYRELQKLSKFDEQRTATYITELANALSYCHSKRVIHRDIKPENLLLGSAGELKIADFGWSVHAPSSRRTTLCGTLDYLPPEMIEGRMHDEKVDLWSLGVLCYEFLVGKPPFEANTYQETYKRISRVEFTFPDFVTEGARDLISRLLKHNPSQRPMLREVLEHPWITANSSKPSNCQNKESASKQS
Chain of Serine/threonine-protein kinase Nek2 (P51955 whole entry): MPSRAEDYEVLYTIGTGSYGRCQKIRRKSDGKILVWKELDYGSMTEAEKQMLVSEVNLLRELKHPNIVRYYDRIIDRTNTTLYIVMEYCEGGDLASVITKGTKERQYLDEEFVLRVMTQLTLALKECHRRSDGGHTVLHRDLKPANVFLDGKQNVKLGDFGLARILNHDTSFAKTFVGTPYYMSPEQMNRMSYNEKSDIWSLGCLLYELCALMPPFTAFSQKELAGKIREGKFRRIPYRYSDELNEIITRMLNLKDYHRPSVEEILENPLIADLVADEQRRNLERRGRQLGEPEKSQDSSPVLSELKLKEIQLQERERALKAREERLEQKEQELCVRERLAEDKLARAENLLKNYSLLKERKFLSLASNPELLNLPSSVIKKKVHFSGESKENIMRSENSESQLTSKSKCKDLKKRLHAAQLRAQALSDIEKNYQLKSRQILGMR
Chain of Death-associated protein kinase 3 (O43293 whole entry): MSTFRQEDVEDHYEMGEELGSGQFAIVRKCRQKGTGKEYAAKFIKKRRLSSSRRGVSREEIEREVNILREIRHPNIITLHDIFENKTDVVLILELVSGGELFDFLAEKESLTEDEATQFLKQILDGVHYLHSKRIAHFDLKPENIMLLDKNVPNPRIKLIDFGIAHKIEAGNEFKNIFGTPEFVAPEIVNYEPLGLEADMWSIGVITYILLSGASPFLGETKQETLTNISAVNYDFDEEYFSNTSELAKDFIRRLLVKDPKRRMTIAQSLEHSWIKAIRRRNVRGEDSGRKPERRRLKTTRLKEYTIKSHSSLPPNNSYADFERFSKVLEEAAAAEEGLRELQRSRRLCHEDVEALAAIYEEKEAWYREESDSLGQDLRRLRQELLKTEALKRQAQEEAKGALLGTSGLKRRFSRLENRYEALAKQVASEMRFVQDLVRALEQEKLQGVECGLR

For `CCN(CC)CCOC(=O)c1ccc(N/C=C(/C#N)c2nc(-c3ccc4c(c3)OCO4)cs2)cc1`, the AC50 (INS1) was 11 µM (active), the IC50 [1] was 120 µM (active) and the IC50 [2] was 5.07 µM (active). The IC50 [3] was 20.7 µM (active), the IC50 (Bcl-2-related protein A1) was 1.72 µM (active) and the IC50 [4] was > 100 µM (inactive). For the same molecule, the IC50 [5] was 2.13 µM (active), the CC50 [6] was > 40 µM (active) and the IC50 [7] was 6.43 µM (active). For the same molecule, the IC50 (Prothrombin) was 56.1 µM (active), the IC50 [8] was 31.4 µM (active) and the IC50 [9] was 6.35 µM (active). For the same molecule, the IC50 [10] was > 66.6 µM (inactive).
With `CCOCCSc1nc2c(c(-c3cccs3)c1C#N)CC/C2=C/c1cccs1` the EC50 (Lethal factor) was 16.7 µM (active), the EC50 [11] was 17.8 µM (active) and the EC50 [12] was 8 µM (active). For the same molecule, the EC50 [13] was 6.4 µM (active).
With `CC1=CN2CC(=O)NN=C2C=C1` the Ki (LIM domain kinase 1) was 12.6 µM (active), the Ki [14] was 63.1 µM (active) and the Ki [15] was 31.6 µM (active). The Ki [16] was 79.4 µM (active), the Ki [17] was 100 µM (active) and the Ki [18] was 79.4 µM (active). The Ki [19] was 12.6 µM (active), the Ki [20] was 50.1 µM (active) and the Ki [21] was 25.1 µM (active). For the same molecule, the Ki [22] was 31.6 µM (active), the Ki [23] was 50.1 µM (active) and the Ki [24] was > 100 µM (inactive). For the same molecule, the Ki [25] was 79.4 µM (active), the Ki [26] was 20 µM (active) and the Ki [27] was 79.4 µM (active). The Ki [28] was > 100 µM (inactive), the Ki [29] was 50.1 µM (active) and the Ki [30] was 3.16 µM (active). The Ki [31] was 63.1 µM (active), the Ki [32] was > 50.1 µM (inactive) and the Ki [33] was > 100 µM (inactive). The Ki (Aurora kinase B) was 79.4 µM (active), the Ki [34] was 20 µM (active) and the Ki (Focal adhesion kinase 1) was 79.4 µM (active). The Ki [35] was 12.6 µM (active), the Ki [36] was 100 µM (active) and the Ki [37] was 50.1 µM (active). The Ki [38] was 100 µM (active), the Ki (Aurora kinase A) was 31.6 µM (active) and the Ki [39] was 50.1 µM (active). For the same molecule, the Ki [40] was > 79.4 µM (inactive).
